The results in this text go back to patent US20230085307A1, “PYRIDAZINONE COMPOUND AND HERBICIDE” (NISSAN CHEMICAL CORPORATION, priority 2019, published 2023).

Data set [1] has as its system lambsquarters. Kind of data set: Test Example 4: herbicidal effect by soil treatment (Table 19, symbol O). The following applies: amount of applied herbicide 320 g/ha. The format is in vivo, lambsquarters (Chenopodium album). An outline of the steps: (§1)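 Seeds were sown in sterilized diluvial soil and covered with about 1.5 cm of soil. An emulsion formulation diluted with water to a predetermined herbicide amount was sprayed evenly onto the soil surface. Plants grew in a greenhouse at 25° C. to 30° C., and the effect was scored three weeks after application using criteria from an earlier test.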

Data set [2] deals with wheat. Kind of data set: Test Example 4: effect on crop by soil treatment (Table 19, symbol e). It is filed as in vivo. The following applies: amount of applied herbicide 320 g/ha. An excerpt: (§2) [Test Example 4] Herbicidal Effect Test by Soil Treatment
(§3) Sterilized diluvial soil was placed in a plastic box having a length of 21 cm, a width of 13 cm, and a depth of 7 cm. The seeds of each of southern crabgrass, green foxtail, barnyard grass, wild oat, blackgrass, Italian ryegrass, windgrass, velvetleaf, redroot pigweed, lambsquarters, chickweed, false cleavers, persian speedwell, corn, soybean, rice, wheat, beet, and rapeseed were sowed in a spot-like manner and covered with the soil having a thickness of about 1.5 cm. Subsequently, the emulsion agent of the compound of the present invention prepared according to Formulation Example 2 was diluted with water so as to achieve a predetermined herbicide amount, and the diluted emulsion agent was uniformly applied to the surface of the soil with a small-sized spray. The plastic box was placed in a greenhouse at 25° C. to 30° C. for growth of the plants. Three weeks after the herbicide application, the effect of the herbicide on each plant was evaluated according to the criteria of Test Example 1.

For data set [3], the system named is wild oat. Kind of data set: Test Example 4: herbicidal effect by soil treatment (Table 19, symbol I). It is filed as in vivo, wild oat (Avena fatua). The following applies: amount of applied herbicide 320 g/ha. The method, boiled down:
as §1

The test system of data set [4] is velvetleaf. The experiment in a line: Test Example 5: herbicidal effect by foliage application, plastic box (Table 20, symbol M). It is filed as in vivo, velvetleaf (Abutilon theophrasti). The following applies: foliage application, AAH 320 g/ha, three weeks after application. The method, boiled down:
(§4)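 Plants sown in sterilized diluvial soil and grown 14 days in a greenhouse at 25° C to 30° C, then sprayed on the foliage with the compound's emulsion diluted in water to a predetermined herbicide amount. Injury to weeds and crops scored three weeks after application on a visual rating scale.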

Data set [5] has as its system false cleavers. Kind of data set: Test Example 4: herbicidal effect by soil treatment (Table 19, symbol Q). It is filed as in vivo, false cleavers (Galium spurium). The following applies: amount of applied herbicide 320 g/ha. An outline of the steps:
as §1

Data set [6] has as its system rapeseed. Kind of data set: Test Example 5: effect on crop by foliage application, plastic box (Table 20, symbol g). The format is in vivo. The following applies: AAH 320 g/ha, three weeks after application.
Source text: [Test Example 5] Herbicidal Effect Test by Foliage Application
as §3, with “Thereafter, the plants were grown in a greenhouse at 25° C. to 30° C. After 14-day growth of the plants,” for “Subsequently,”, “a foliage part” for “the surface of the soil”, “spray.” for “spray. The plastic box was placed in a greenhouse at 25° C. to 30° C. for growth of the plants.”

In data set [7] the test system is blackgrass. The experiment in a line: Test Example 5: herbicidal effect by foliage application, plastic box (Table 20, symbol J). It is filed as in vivo, blackgrass (Alopecurus myosuroides). The following applies: foliage application, AAH 320 g/ha, three weeks after application. An outline of the steps:
as §4

Data set [8] concerns directly sowed rice. Kind of data set: Test Example 3: effect on crop by foliage application, Wagner pot (Table 18, symbol b). The format is in vivo. The following applies: 320 g/ha. An outline of the steps: (§5)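 Plants were sown in alluvial soil held under 0.1–0.5 cm standing water and grown 14 days in a greenhouse at 25–30 °C. An emulsifiable formulation, water-diluted to the set dose, was then sprayed onto the foliage, and effects were scored three weeks later using previously defined criteria.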

For data set [9], the system named is soybean. Kind of data set: Test Example 4: effect on crop by soil treatment (Table 19, symbol d). It is filed as in vivo. The following applies: amount of applied herbicide 320 g/ha.
Source text: as §2, §3

The test system of data set [10] is wild oat. Kind of data set: Test Example 5: herbicidal effect by foliage application, plastic box (Table 20, symbol I). The following applies: foliage application, AAH 320 g/ha, three weeks after application. It is filed as in vivo, wild oat (Avena fatua). The method, boiled down: as §4
Data set [11] has as its system chickweed. The experiment in a line: Test Example 4: herbicidal effect by soil treatment (Table 19, symbol P). The format is in vivo, common chickweed (Stellaria media). The following applies: amount of applied herbicide 320 g/ha. The method, boiled down:
as §1

The subject of data set [12] is Italian ryegrass. The experiment in a line: Test Example 4: herbicidal effect by soil treatment (Table 19, symbol K). It is filed as in vivo, Italian ryegrass (Lolium multiflorum). The following applies: amount of applied herbicide 320 g/ha. The method, boiled down: as §1
Data set [13] has as its system barnyard grass. The experiment in a line: Test Example 5: herbicidal effect by foliage application, plastic box (Table 20, symbol H). The format is in vivo, barnyard grass (Echinochloa crus-galli). The following applies: foliage application, AAH 320 g/ha, three weeks after application. An outline of the steps: as §4
Data set [14] has as its system rice flat sedge. The experiment in a line: Test Example 3: herbicidal effect by foliage application, Wagner pot (Table 18, symbol E). The following applies: 320 g/ha. It is filed as in vivo, rice flat sedge (Cyperus iria). An outline of the steps: as §5
Data set [15] concerns lambsquarters. The experiment in a line: Test Example 5: herbicidal effect by foliage application, plastic box (Table 20, symbol O). It is filed as in vivo, lambsquarters (Chenopodium album). The following applies: foliage application, AAH 320 g/ha, three weeks after application. An outline of the steps:
as §4

In data set [16] the test system is redroot pigweed. Kind of data set: Test Example 4: herbicidal effect by soil treatment (Table 19, symbol N). It is filed as in vivo, redroot pigweed (Amaranthus retroflexus). The following applies: amount of applied herbicide 320 g/ha. The method, boiled down: as §1
The subject of data set [17] is corn. The experiment in a line: Test Example 4: effect on crop by soil treatment (Table 19, symbol c). It is filed as in vivo. The following applies: amount of applied herbicide 320 g/ha. The method, boiled down:
as §1

Data set [18] relates to windgrass. Kind of data set: Test Example 4: herbicidal effect by soil treatment (Table 19, symbol L). The format is in vivo, windgrass (Apera spica-venti). The following applies: amount of applied herbicide 320 g/ha. The method, boiled down:
as §1

The test system of data set [19] is soybean. The experiment in a line: Test Example 5: effect on crop by foliage application, plastic box (Table 20, symbol d). It is filed as in vivo. The following applies: AAH 320 g/ha, three weeks after application. The method, boiled down:
as §4

The compound `Cc1nn(C)c(=O)c(-c2c(-n3cc(Cl)cn3)sc3ccccc23)c1O` [Compound No. 1-097, 5-hydroxy-2,6-dimethyl-4-(2-(4-chloro-1H-pyrazol-1-yl)benzo[b]thiophen-3-yl)pyridazin-3(2H)-one] had a melting point of 232 to 234 °C. Further, in data set [1], the “herbicidal effect rating, O: lambsquarters” value was 4 (Herbicidal rate of 70% or more and less than 90%). Also, the “effect rating on crop, e: wheat” value in data set [2] is recorded as 0 (Herbicidal rate of 5% or less (almost no effect)). For the same compound, the “herbicidal effect rating, I: wild oat” value in [3] is listed as 0 (Herbicidal rate of 5% or less (almost no effect)). Further, the “M: velvetleaf, herbicidal effect” value in data set [4] is 5 (Herbicidal rate of 90% or more (almost completely withered)). Also, the “herbicidal effect rating, Q: false cleavers” value in [5] was 0 (Herbicidal rate of 5% or less (almost no effect)). Moreover, in [6], the “g: rapeseed, effect on crop” value is recorded as 5 (Herbicidal rate of 90% or more (almost completely withered)). Also, the “J: blackgrass, herbicidal effect” value in [7] is on record as 0 (Herbicidal rate of 5% or less (almost no effect)). In addition, the “effect on crop b (directly sowed rice), rating 0-5” value in data set [8] is 0 (Herbicidal rate of 5% or less (almost no effect)). Also, in data set [9], the “effect rating on crop, d: soybean” value is on record as 0 (Herbicidal rate of 5% or less (almost no effect)). Besides, in data set [10], the “I: wild oat, herbicidal effect” value is given as 0 (Herbicidal rate of 5% or less (almost no effect)). In addition, in data set [11], the “herbicidal effect rating, P: chickweed” value is listed as 0 (Herbicidal rate of 5% or less (almost no effect)). Also, the “herbicidal effect rating, K: Italian ryegrass” value in data set [12] was 0 (Herbicidal rate of 5% or less (almost no effect)). In addition, in data set [13], the “H: barnyard grass, herbicidal effect” value is 0 (Herbicidal rate of 5% or less (almost no effect)). The “herbicidal effect on E (rice flat sedge), rating 0-5” value in data set [14] is 4 (Herbicidal rate of 70% or more and less than 90%). Also, the “O: lambsquarters, herbicidal effect” value in data set [15] is on record as 0 (Herbicidal rate of 5% or less (almost no effect)). Moreover, the “herbicidal effect rating, N: redroot pigweed” value in [16] is 1 (Herbicidal rate of 5% or more and less than 20%). For the same compound, the “effect rating on crop, c: corn” value in [17] is on record as 0 (Herbicidal rate of 5% or less (almost no effect)). Further, in [18], the “herbicidal effect rating, L: windgrass” value is recorded as 0 (Herbicidal rate of 5% or less (almost no effect)). The “d: soybean, effect on crop” value in [19] is listed as 0 (Herbicidal rate of 5% or less (almost no effect)).
